Laboratory results taken from patent US10711004B2 (Genentech, Inc., priority 2018, dated 2020).
Read-outs that look alike come from different tables or passages of the source.

Target: human TRPA1 channel (Homo sapiens (Human), UniProt O75762)
Assay: hTRPA1 CHO Ca2+ FLIPR Tetra assay, block of cinnamaldehyde induced calcium influx
Format: cell-based
Conditions: CHO cells expressing TRPA1, Hill coefficient fixed to 1.5
In short: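 Calcium-dye-loaded TRPA1-expressing CHO cells in HBSS/20 mM HEPES pH 7.4, 0.02% BSA were preincubated with compound for 10 or 90 min at room temperature. Calcium influx evoked by roughly an EC50 concentration of cinnamaldehyde was then read on FLIPR Tetra; IC50 came from curve fits with a fixed Hill coefficient.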

[1] = read-out: hTRPA1 IC50 (10 min), compounds incubated 10 minutes at room temperature before cinnamaldehyde agonist
[2] = read-out: hTRPA1 IC50 (90 min), compounds incubated 90 minutes at room temperature before cinnamaldehyde agonist

Sequence of human TRPA1 channel (O75762 whole entry): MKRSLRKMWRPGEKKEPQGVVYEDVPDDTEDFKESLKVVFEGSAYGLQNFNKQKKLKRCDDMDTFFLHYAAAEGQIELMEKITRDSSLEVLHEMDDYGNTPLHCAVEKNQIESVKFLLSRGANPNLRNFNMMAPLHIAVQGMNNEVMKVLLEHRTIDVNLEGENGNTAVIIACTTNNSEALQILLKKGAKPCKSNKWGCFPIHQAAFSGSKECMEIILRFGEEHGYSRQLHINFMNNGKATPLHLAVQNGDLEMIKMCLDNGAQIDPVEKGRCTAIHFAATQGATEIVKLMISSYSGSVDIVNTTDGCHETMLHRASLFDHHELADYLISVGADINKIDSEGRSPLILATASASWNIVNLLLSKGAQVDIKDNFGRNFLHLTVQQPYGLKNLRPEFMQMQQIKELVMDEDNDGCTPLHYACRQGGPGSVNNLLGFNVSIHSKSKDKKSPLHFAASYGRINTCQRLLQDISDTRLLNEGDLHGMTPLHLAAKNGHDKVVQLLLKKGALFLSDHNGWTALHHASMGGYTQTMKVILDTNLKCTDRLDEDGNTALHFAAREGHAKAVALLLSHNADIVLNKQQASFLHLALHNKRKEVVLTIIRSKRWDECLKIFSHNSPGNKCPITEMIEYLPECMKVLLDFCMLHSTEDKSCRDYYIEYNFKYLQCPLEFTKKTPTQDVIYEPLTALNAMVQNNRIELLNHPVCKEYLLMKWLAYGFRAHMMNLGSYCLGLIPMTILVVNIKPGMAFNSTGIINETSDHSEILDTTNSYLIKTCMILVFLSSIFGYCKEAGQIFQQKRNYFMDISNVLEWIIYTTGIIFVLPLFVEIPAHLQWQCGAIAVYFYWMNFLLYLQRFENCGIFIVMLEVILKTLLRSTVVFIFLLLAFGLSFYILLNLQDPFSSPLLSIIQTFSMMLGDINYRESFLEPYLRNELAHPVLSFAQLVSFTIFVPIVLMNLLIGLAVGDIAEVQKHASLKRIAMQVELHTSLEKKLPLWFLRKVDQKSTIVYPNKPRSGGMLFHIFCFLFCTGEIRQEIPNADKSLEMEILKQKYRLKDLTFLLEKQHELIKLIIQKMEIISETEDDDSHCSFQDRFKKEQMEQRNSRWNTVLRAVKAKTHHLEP

| SMILES | IC50 [1] | IC50 [2] |
| --- | --- | --- |
| Cn1cnc2ncn(Cc3nc([C@H]4[C@@H]5Oc6c(Cl)cccc6[C@@H]54)no3)c(=O)c21 [Example Compound 186, 1-((3-((1S,1aR,6bS)-3-chloro-1a,6b-dihydro-1H-cyclopropa[b]benzofuran-1-yl)-1,2,4-oxadiazol-5-yl)methyl)-7-methyl-1,7-dihydro-6H-purin-6-one] | 49.9 nM | 46 nM |
| Cn1cnc2ncn(Cc3nc([C@@H]4[C@H]5Oc6c(Cl)cccc6[C@H]54)no3)c(=O)c21 [Example Compound 187, 1-((3-((1R,1 aS,6bR)-3-chloro-1a,6b-dihydro-1H-cyclopropa[b]benzofuran-1-yl)-1,2,4-oxadiazol-5-yl)methyl)-7-methyl-1,7-dihydro-6H-purin-6-one] | 763 nM | – |
| Cn1cnc2ncn(Cc3nc([C@H]4C[C@H](c5cccc(C#N)c5)C4)no3)c(=O)c21 [Example Compound 189, 3-((1r,3r)-3-(5-((7-methyl-6-oxo-6,7-dihydro-1H-purin-1-yl)methyl)-1,2,4-oxadiazol-3-yl)cyclobutyl)benzonitrile] | 68.2 nM | – |
| Cn1cnc2ncn(Cc3nc([C@H]4[C@@H]5CN(c6cccc(-c7ncco7)c6)C[C@@H]54)no3)c(=O)c21 [Example Compound 190, 7-methyl-1-((3-((1R,5S,6r)-3-(3-(oxazol-2-yl)phenyl)-3-azabicyclo[3.1.0]hexan-6-yl)-1,2,4-oxadiazol-5-yl)methyl)-1,7-dihydro-6H-purin-6-one] | 78.3 nM | 72 nM |
| Cn1cnc2ncn(Cc3nc([C@H]4C[C@H](c5cccc(F)c5)C4)no3)c(=O)c21 [Example Compound 191, 1-((3-((1r,3r)-3-(3-fluorophenyl)cyclobutyl)-1,2,4-oxadiazol-5-yl)methyl)-7-methyl-1,7-dihydro-6H-purin-6-one] | 83 nM | – |
| Cn1cnc2ncn(Cc3nc([C@H]4[C@@H]5CN(c6ccc(C#N)cc6)C[C@@H]54)no3)c(=O)c21 [Example Compound 192, 4-((1R,5S,6r)-6-(5-((7-methyl-6-oxo-6,7-dihydro-1H-purin-1-yl)methyl)-1,2,4-oxadiazol-3-yl)-3-azabicyclo[3.1.0]hexan-3-yl)benzonitrile] | 27.4 nM | 13 nM |
| Cn1cnc2ncn(Cc3nc([C@H]4[C@@H]5CN(c6cc(Cl)cc(C#N)c6)C[C@@H]54)no3)c(=O)c21 [Example Compound 193, 3-chloro-5-((1R,5S,6r)-6-(5-((7-methyl-6-oxo-6,7-dihydro-1H-purin-1-yl)methyl)-1,2,4-oxadiazol-3-yl)-3-azabicyclo[3.1.0]hexan-3-yl)benzonitrile] | 37.1 nM | 32 nM |
| O=c1c2cccnc2ncn1Cc1nc([C@H]2[C@@H]3CN(c4ccccc4)C[C@@H]32)no1 [Example Compound 194, 3-((3-((1R,5S,6r)-3-phenyl-3-azabicyclo[3.1.0]hexan-6-yl)-1,2,4-oxadiazol-5-yl)methyl)pyrido[2,3-d]pyrimidin-4(3H)-one] | 20.1 nM | 15 nM |
| O=c1c2ccncc2ncn1Cc1nc([C@H]2[C@@H]3CN(c4ccccc4)C[C@@H]32)no1 [Example Compound 195, 3-((3-((1R,5S,6r)-3-phenyl-3-azabicyclo[3.1.0]hexan-6-yl)-1,2,4-oxadiazol-5-yl)methyl)pyrido[3,4-d]pyrimidin-4(3H)-one] | 99.4 nM | 110 nM |
| Cc1ccnc2ncn(Cc3nc([C@H]4C[C@](F)(c5ccc(F)cc5)C4)no3)c(=O)c12 [Example Compound 196, 3-((3-((1s,3s)-3-fluoro-3-(4-fluorophenyl)cyclobutyl)-1,2,4-oxadiazol-5-yl)methyl)-5-methylpyrido[2,3-d]pyrimidin-4(3H)-one] | 13 nM | 30 nM |
| O=c1c2cccnc2ncn1Cc1nc([C@H]2C[C@](F)(c3cccc(F)c3)C2)no1 [Example Compound 197, 3-((3-((1s,3s)-3-fluoro-3-(3-fluorophenyl)cyclobutyl)-1,2,4-oxadiazol-5-yl)methyl)pyrido[2,3-d]pyrimidin-4(3H)-one] | 66.9 nM | – |
